The supplement of paper PMC10307832

Assays:
Assay in all cases: relative viability (nuclei count vs DMSO), 5 days (fraction); higher = more cells survive
IPA-3 + Crizotinib = compound: C1=CC=C2C(=C1)C=CC(=C2SSC3=C(C=CC4=CC=CC=C43)O)O [IPA-3] + C[C@@H](Oc1cc(-c2cnn(C3CCNCC3)c2)cnc1N)c1c(Cl)ccc(F)c1Cl [Crizotinib] (partner 1 µM)
Outline: (§1)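 Lung cancer cell lines were pin-tool dosed in 1536-well plates on the day after seeding, with either a lone drug or a fixed anchor-drug dose plus five library-drug doses (not always all listed) in √10 steps. Nuclei were counted on 4× images after 5 days. Relative viability is the ratio of treated-well to vehicle-well nuclei counts, with each value a median of duplicate plates.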

IPA-3 + Vorinostat = compound: C1=CC=C2C(=C1)C=CC(=C2SSC3=C(C=CC4=CC=CC=C43)O)O [IPA-3] + O=C(CCCCCCC(=O)Nc1ccccc1)NO [Vorinostat] (partner 1 µM)
Outline: as §1

RAF265 + Navitoclax = compound: Cn1c(Nc2ccc(C(F)(F)F)cc2)nc2cc(Oc3ccnc(-c4ncc(C(F)(F)F)[nH]4)c3)ccc21 [RAF265] + CC1(C)CCC(c2ccc(Cl)cc2)=C(CN2CCN(c3ccc(C(=O)NS(=O)(=O)c4ccc(N[C@H](CCN5CCOCC5)CSc5ccccc5)c(S(=O)(=O)C(F)(F)F)c4)cc3)CC2)C1 [Navitoclax] (partner 0.5 µM)
Outline: as §1

RAF265 + Olaparib = compound: Cn1c(Nc2ccc(C(F)(F)F)cc2)nc2cc(Oc3ccnc(-c4ncc(C(F)(F)F)[nH]4)c3)ccc21 [RAF265] + O=C(c1cc(Cc2n[nH]c(=O)c3ccccc23)ccc1F)N1CCN(C(=O)C2CC2)CC1 [Olaparib] (partner 8 µM)
Outline: as §1

| Cell Line | relative viability (IPA-3 + Crizotinib; first compound 0.2 µM) | relative viability (IPA-3 + Crizotinib; first compound 0.6325 µM) | relative viability (IPA-3 + Crizotinib; first compound 2 µM) | relative viability (IPA-3 + Crizotinib; first compound 6.325 µM) | relative viability (IPA-3 + Crizotinib; first compound 20 µM) | relative viability (IPA-3 + Vorinostat; first compound 0.2 µM) | relative viability (IPA-3 + Vorinostat; first compound 0.6325 µM) | relative viability (IPA-3 + Vorinostat; first compound 2 µM) | relative viability (IPA-3 + Vorinostat; first compound 6.325 µM) | relative viability (IPA-3 + Vorinostat; first compound 20 µM) | relative viability (RAF265 + Navitoclax; first compound 0.01 µM) | relative viability (RAF265 + Navitoclax; first compound 0.03162 µM) | relative viability (RAF265 + Navitoclax; first compound 0.1 µM) | relative viability (RAF265 + Navitoclax; first compound 0.3162 µM) | relative viability (RAF265 + Navitoclax; first compound 1 µM) | relative viability (RAF265 + Olaparib; first compound 0.01 µM) | relative viability (RAF265 + Olaparib; first compound 0.03162 µM) | relative viability (RAF265 + Olaparib; first compound 0.1 µM) | relative viability (RAF265 + Olaparib; first compound 0.3162 µM) | relative viability (RAF265 + Olaparib; first compound 1 µM) |
| --- | --- | --- | --- | --- | --- | --- | --- | --- | --- | --- | --- | --- | --- | --- | --- | --- | --- | --- | --- | --- |
| NCI-H1650 | 1.04 | 0.816 | 1.14 | 0.938 | 1.28 | 1.02 | 0.47 | 0.531 | 0.555 | 0.729 | 1.17 | 1.18 | 1.53 | 1.19 | 1.22 | 0.9 | 0.797 | 0.824 | 0.837 | 0.826 |
| HCC-827 | 0.927 | 0.89 | 0.865 | 0.873 | 0.859 | 0.87 | 0.871 | 0.739 | 0.864 | 0.771 | 1.06 | 0.987 | 1.08 | – | 0.78 | 0.727 | 0.7 | 0.794 | – | 0.512 |
| HCC-366 | 0.697 | 0.564 | 0.617 | 0.521 | 0.618 | 0.518 | 0.287 | 0.339 | 0.341 | 0.318 | 1.09 | 1.15 | 1.13 | 1.09 | 0.776 | 0.388 | 0.38 | 0.452 | 0.397 | 0.239 |
| HARA | 1.21 | 1.22 | 1.09 | 1.14 | 1.24 | 0.48 | 0.509 | 0.421 | 0.653 | 0.447 | 1.15 | 1.05 | 1.1 | 1.21 | 0.824 | 0.859 | 0.871 | 0.812 | 0.65 | 0.438 |
| NCI-H322M | 1.08 | 0.933 | 0.96 | 0.886 | 1.1 | 0.92 | 0.948 | 1.02 | 1.07 | 1.11 | 1.18 | 1.14 | 1.15 | 0.381 | 0.274 | 0.878 | 0.689 | 0.632 | 0.53 | 0.344 |
| LXF-289 | 0.828 | 0.764 | 0.811 | 0.829 | 0.86 | 0.825 | 0.862 | 0.692 | 0.827 | 0.898 | 0.919 | 0.905 | 0.935 | 0.818 | 0.807 | 1.08 | 1.06 | 0.998 | 0.748 | 0.551 |
| PC-3 [JPC-3] | 1.04 | 0.964 | 0.937 | 0.976 | 0.923 | 0.821 | 0.816 | 0.896 | 0.73 | 0.767 | 0.735 | 0.754 | 0.893 | 0.304 | 0.556 | 1.14 | 1.06 | 1.09 | 0.537 | 0.704 |
| CAL-12T | 0.479 | 0.6 | 0.699 | 0.516 | 0.69 | 1 | 0.58 | 0.773 | 0.762 | 1.13 | 1.28 | 1.01 | 0.861 | 0.757 | 0.523 | 0.84 | 0.645 | 0.677 | 0.592 | 0.593 |
| COR-L 105 | 0.954 | 0.757 | 0.704 | 0.788 | 0.964 | 1.08 | 0.543 | 0.907 | 0.995 | 0.79 | 0.853 | 0.878 | 0.668 | 0.685 | 0.339 | 0.727 | 0.618 | 0.703 | 0.772 | 0.485 |
| NCI-H2347 | 0.834 | 0.749 | 0.724 | 0.697 | 0.708 | 0.768 | 0.601 | 0.634 | 0.506 | 0.638 | 1.03 | 0.786 | 0.864 | 0.456 | 0.467 | 0.644 | 0.606 | 0.57 | 0.523 | 0.384 |
| NCI-H2126 | 1.05 | 0.983 | 1.05 | 1.03 | 1.14 | 0.822 | 0.784 | 0.746 | 0.753 | 0.892 | 0.813 | 0.826 | 0.866 | 0.687 | 0.616 | 0.942 | 0.907 | 0.901 | 0.818 | 0.724 |
| NCI-H838 | 1.02 | 0.788 | 0.914 | 0.839 | 1.27 | 0.776 | 0.697 | 0.75 | 0.706 | 0.794 | 1.23 | 1.14 | 1.15 | 1.1 | 1.01 | 0.829 | 0.725 | 0.752 | 0.694 | 0.594 |
| SK-LU-1 | 1.27 | – | 0.929 | 0.823 | 0.89 | 0.902 | 0.779 | 0.643 | 0.75 | 0.852 | 1.41 | 0.682 | 0.718 | 0.744 | 0.273 | 0.511 | 0.386 | 0.419 | 0.283 | 0.265 |
| NCI-H2085 | 0.89 | 0.912 | 0.876 | 0.931 | 0.995 | 0.868 | 0.756 | 0.819 | 0.726 | 0.957 | 1.17 | 1.12 | 1.16 | 1.27 | 1.09 | 0.954 | 0.723 | 0.841 | 0.854 | 0.76 |
| NCI-H460 | 1.07 | 0.871 | 0.908 | 0.726 | 0.62 | 0.94 | 0.665 | 0.729 | 0.626 | 0.504 | 1.17 | 1.08 | 1.21 | – | 0.852 | 0.444 | 0.426 | 0.491 | 0.411 | 0.28 |
| RERF-LC-KJ | 0.794 | 0.796 | 0.922 | 0.789 | 0.816 | 0.829 | 0.729 | 0.726 | 0.653 | 0.696 | 1.08 | 0.95 | 0.851 | 0.747 | 0.841 | 0.952 | 0.892 | 0.759 | 0.682 | 0.575 |
| HCC-15 | 0.812 | 0.855 | 0.825 | 0.776 | 0.886 | 0.929 | 0.937 | 0.894 | 0.804 | 0.975 | 0.734 | 0.709 | 0.7 | 0.505 | 0.464 | 0.837 | 0.647 | 0.656 | 0.608 | 0.43 |
| H3255 | 1.11 | 0.86 | 0.962 | 0.749 | 1.03 | 1.05 | 0.759 | 0.801 | 0.791 | 0.967 | 0.563 | 0.47 | 0.695 | 0.0727 | 0.23 | 0.589 | 0.568 | 0.538 | – | 0.454 |
| NCI-H596 | 1.08 | 0.597 | 1.08 | 1.1 | 1.24 | 0.722 | 0.772 | 0.578 | 0.694 | 0.656 | 1.02 | 0.862 | 1.03 | 1.06 | 0.576 | 0.825 | 0.765 | 0.711 | 0.727 | 0.535 |
| NCI-H2087 | 0.955 | 0.755 | 0.9 | 0.791 | 0.957 | 0.72 | 0.841 | 0.727 | 0.668 | 0.821 | 0.995 | 0.823 | 0.692 | 0.683 | 0.568 | 0.757 | 0.496 | 0.64 | 0.334 | 0.373 |
| EMC-BAC-2 | 0.79 | 0.769 | 0.771 | 0.698 | 0.829 | 0.436 | 0.556 | 0.504 | 0.428 | 0.491 | 1.11 | 1.06 | 1.05 | 0.941 | 0.612 | 0.576 | 0.43 | 0.407 | 0.371 | 0.167 |
| NCI-H1355 | 1.21 | 0.999 | 0.778 | 1.07 | 1.11 | 0.69 | 0.655 | 0.595 | 0.617 | 0.657 | 1.01 | 0.831 | 0.919 | 0.532 | 0.264 | 0.814 | 0.732 | 0.694 | 0.608 | 0.31 |
| NCI-H23 | 0.488 | 0.376 | 0.599 | 0.545 | 0.654 | 0.735 | 0.616 | 0.595 | 0.611 | 0.501 | 0.886 | 0.825 | 0.775 | 0.553 | 0.317 | 0.363 | 0.24 | 0.294 | 0.271 | 0.186 |
| NCI-H1651 | 0.962 | 0.85 | 0.909 | 0.88 | 0.961 | 0.608 | 0.612 | 0.61 | 0.645 | 0.592 | 0.992 | 0.884 | 1.06 | 0.874 | 0.871 | 0.187 | 0.17 | 0.194 | 0.185 | 0.167 |
| NCI-H1975 | 1.21 | 0.896 | 0.968 | 0.883 | 0.952 | 0.791 | 0.672 | 0.712 | 0.83 | 0.831 | 1.17 | 0.812 | 0.912 | 0.528 | 0.324 | 0.707 | 0.552 | 0.522 | 0.308 | 0.305 |
| COR-L23 | 0.695 | 0.699 | 0.682 | 0.604 | 0.601 | 0.561 | 0.471 | 0.416 | 0.232 | 0.307 | 0.976 | 0.957 | 0.918 | 0.512 | 0.514 | 0.395 | 0.329 | 0.305 | 0.307 | 0.184 |
| HCC-44 | 0.859 | 0.735 | 0.917 | 0.804 | 0.807 | 1.03 | 1.03 | 1.04 | 1.07 | 0.986 | 0.879 | 0.884 | 1.03 | 1.03 | 0.916 | 0.977 | 0.985 | 0.998 | 0.984 | 1.01 |
